Assay results reported in PubChem BioAssay (NCI).
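GI50 = concentration required for 50% inhibition of growth. TGI: total growth inhibition.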

Tests used:
Assay in all cases: NCI tumour cell line growth inhibition, 384-well format
[1] = test system: ACHN renal
[2] = test system: BT-549 breast
[3] = test system: CAKI-1 renal
[4] = test system: CCRF-CEM leukemia
[5] = test system: COLO 205 colon
[6] = test system: EKVX NSCLC
[7] = test system: HCC-2998 colon
[8] = test system: HCT-15 colon
[9] = test system: HL-60(TB) leukemia
[10] = test system: HS 578T breast
[11] = test system: IGROV1 ovarian
[12] = test system: KM12 colon
[13] = test system: M14 melanoma
[14] = test system: MALME-3M melanoma
[15] = test system: MDA-MB-435 melanoma
[16] = test system: MDA-MB-468 breast
[17] = test system: MOLT-4 leukemia
[18] = test system: NCI-H23 lung
[19] = test system: NCI-H322M lung
[20] = test system: NCI-H460 NSCLC
[21] = test system: NCI-H522 lung
[22] = test system: NCI/ADR-RES ovarian
[23] = test system: OVCAR-3 ovarian
[24] = test system: OVCAR-4 ovarian
[25] = test system: RPMI-8226 leukemia
[26] = test system: RXF 393 renal
[27] = test system: SF-268 CNS
[28] = test system: SF-539 CNS
[29] = test system: SK-MEL-28 melanoma
[30] = test system: SK-MEL-5 melanoma
[31] = test system: SN12C renal
[32] = test system: SNB-19 CNS
[33] = test system: SNB-75 CNS
[34] = test system: SR leukemia
[35] = test system: T-47D breast
[36] = test system: UACC-257 melanoma
[37] = test system: UACC-62 melanoma
[38] = test system: UO-31 renal
[39] = test system: 786-0 renal
[40] = test system: A549 NSCLC
[41] = test system: DU-145 prostate
[42] = test system: HOP-62 NSCLC
[43] = test system: HOP-92 NSCLC
[44] = test system: K-562 leukemia
[45] = test system: LOX IMVI melanoma
[46] = test system: MCF7 breast
[47] = test system: MDA-MB-231 breast
[48] = test system: NCI-H226 lung
[49] = test system: OVCAR-5 ovarian
[50] = test system: OVCAR-8 ovarian
[51] = test system: PC-3 prostate
[52] = test system: SF-295 CNS
[53] = test system: SW-620 colon
[54] = test system: TK-10 renal

`CC(=O)N[C@@H]1CCC[C@H](C(=O)Nc2cc(-c3cnn4c3CC(C)(C)C4)c(Cl)cn2)C1` showed a GI50 [1] of less than 10 nM, a TGI [1] greater than 100000 nM and a GI50 [2] of less than 10 nM. For the same molecule, the TGI [2] was less than 10 nM, the GI50 [3] was less than 10 nM and the TGI [3] was greater than 100000 nM. It also gave a GI50 [4] of less than 10 nM, a TGI [4] of less than 10 nM and a GI50 [5] of less than 10 nM. For the same molecule, the TGI [5] was less than 10 nM, the GI50 [6] was less than 10 nM and the TGI [6] was 39.6 nM. The GI50 [7] was less than 10 nM, the TGI [7] was 13.9 nM and the GI50 [8] was less than 10 nM. For the same molecule, the TGI [8] was 21800 nM, the GI50 [9] was less than 10 nM and the TGI [9] was less than 10 nM. The GI50 [10] was less than 10 nM, the TGI [10] was less than 10 nM and the GI50 [11] was less than 10 nM. The TGI [11] was greater than 100000 nM, the GI50 [12] was less than 10 nM and the TGI [12] was less than 10 nM. It also gave a GI50 [13] of less than 10 nM, a TGI [13] of less than 10 nM and a GI50 [14] of less than 10 nM. It also gave a TGI [14] of 14.4 nM, a GI50 [15] of less than 10 nM and a TGI [15] of 44.3 nM. It also gave a GI50 [16] of less than 10 nM, a TGI [16] of less than 10 nM and a GI50 [17] of less than 10 nM. The TGI [17] was less than 10 nM, the GI50 [18] was less than 10 nM and the TGI [18] was 10.3 nM. The GI50 [19] was less than 10 nM, the TGI [19] was less than 10 nM and the GI50 [20] was less than 10 nM. For the same molecule, the TGI [20] was 313 nM, the GI50 [21] was 14.8 nM and the TGI [21] was 36 nM. It also gave a GI50 [22] of 152 nM, a TGI [22] of 620 nM and a GI50 [23] of less than 10 nM. It also gave a TGI [23] of less than 10 nM, a GI50 [24] of less than 10 nM and a TGI [24] of 18.3 nM. For the same molecule, the GI50 [25] was less than 10 nM, the TGI [25] was less than 10 nM and the GI50 [26] was less than 10 nM. It also gave a TGI [26] of less than 10 nM, a GI50 [27] of less than 10 nM and a TGI [27] of less than 10 nM. For the same molecule, the GI50 [28] was less than 10 nM, the TGI [28] was less than 10 nM and the GI50 [29] was less than 10 nM. The TGI [29] was 11.4 nM, the GI50 [30] was less than 10 nM and the TGI [30] was less than 10 nM. It also gave a GI50 [31] of less than 10 nM, a TGI [31] of 14 nM and a GI50 [32] of less than 10 nM. The TGI [32] was greater than 100000 nM, the GI50 [33] was less than 10 nM and the TGI [33] was 26.7 nM. The GI50 [34] was less than 10 nM, the TGI [34] was less than 10 nM and the GI50 [35] was less than 10 nM. The TGI [35] was greater than 100000 nM, the GI50 [36] was less than 10 nM and the TGI [36] was 21.9 nM. The GI50 [37] was less than 10 nM, the TGI [37] was less than 10 nM and the GI50 [38] was 24.5 nM. The TGI [38] was greater than 100000 nM.

`COc1cc(OC)c(/C=C/S(=O)(=O)Cc2ccc(OC)c(NCC(=O)O)c2)c(OC)c1` showed a GI50 [39] of 30.7 nM, a TGI [39] of 607 nM and a GI50 [40] of 61.3 nM. For the same molecule, the TGI [40] was greater than 100000 nM, the GI50 [1] was 58.9 nM and the TGI [1] was greater than 100000 nM. It also gave a GI50 [2] of 48.1 nM, a TGI [2] of 344 nM and a GI50 [3] of 46 nM. The TGI [3] was greater than 100000 nM, the GI50 [4] was 49.4 nM and the TGI [4] was 157 nM. The GI50 [5] was 215 nM, the TGI [5] was 537 nM and the GI50 [41] was 177 nM. It also gave a TGI [41] of 1040 nM, a GI50 [6] of 41.1 nM and a TGI [6] greater than 100000 nM. The GI50 [7] was 40.5 nM, the TGI [7] was 264 nM and the GI50 [8] was 32.3 nM. For the same molecule, the TGI [8] was 373 nM, the GI50 [9] was 33.6 nM and the TGI [9] was 101 nM. It also gave a GI50 [42] of 42.6 nM, a TGI [42] greater than 100000 nM and a GI50 [43] of 38.5 nM. It also gave a TGI [43] of 4170 nM, a GI50 [10] of 15.4 nM and a TGI [10] of 34.7 nM. The GI50 [11] was 60.4 nM, the TGI [11] was greater than 100000 nM and the GI50 [44] was 32.4 nM. For the same molecule, the TGI [44] was 109 nM, the GI50 [45] was 45.7 nM and the TGI [45] was 362 nM. For the same molecule, the GI50 [13] was 25.9 nM, the TGI [13] was 82.7 nM and the GI50 [14] was 25.9 nM. For the same molecule, the TGI [14] was 92.9 nM, the GI50 [46] was 47.3 nM and the TGI [46] was 26000 nM. The GI50 [47] was 92.9 nM, the TGI [47] was greater than 100000 nM and the GI50 [15] was 17.1 nM. The TGI [15] was 36.6 nM, the GI50 [16] was 17.5 nM and the TGI [16] was 42.3 nM. The GI50 [17] was 64.1 nM, the TGI [17] was 187 nM and the GI50 [48] was 38.3 nM. It also gave a TGI [48] greater than 100000 nM, a GI50 [18] of 24.9 nM and a TGI [18] of 77.4 nM. The GI50 [19] was 90.9 nM, the TGI [19] was greater than 100000 nM and the GI50 [20] was 22.6 nM. It also gave a TGI [20] of 59.3 nM, a GI50 [21] of 14.4 nM and a TGI [21] of 33 nM. The GI50 [22] was 16.4 nM, the TGI [22] was 36.4 nM and the GI50 [23] was 16.8 nM. The TGI [23] was 38.2 nM, the GI50 [24] was 24.6 nM and the TGI [24] was 95.5 nM. For the same molecule, the GI50 [49] was 135 nM, the TGI [49] was greater than 100000 nM and the GI50 [50] was 30.3 nM. For the same molecule, the TGI [50] was 93.8 nM, the GI50 [51] was 31.5 nM and the TGI [51] was greater than 100000 nM. For the same molecule, the GI50 [25] was 19 nM, the TGI [25] was 37.5 nM and the GI50 [26] was 16.8 nM. For the same molecule, the TGI [26] was 49.4 nM, the GI50 [27] was 51 nM and the TGI [27] was 2040 nM. For the same molecule, the GI50 [52] was 23.1 nM, the TGI [52] was 57.6 nM and the GI50 [28] was 20.8 nM. For the same molecule, the TGI [28] was 50.8 nM, the GI50 [29] was 63.7 nM and the TGI [29] was greater than 100000 nM. For the same molecule, the GI50 [30] was 19.5 nM, the TGI [30] was 45.8 nM and the GI50 [31] was 63.8 nM. For the same molecule, the TGI [31] was greater than 100000 nM, the GI50 [32] was 43.9 nM and the TGI [32] was greater than 100000 nM. For the same molecule, the GI50 [33] was 35.1 nM, the TGI [33] was 211 nM and the GI50 [34] was 16.1 nM. The TGI [34] was 31.6 nM, the GI50 [53] was 33.8 nM and the TGI [53] was greater than 100000 nM. For the same molecule, the GI50 [54] was 50.9 nM, the TGI [54] was greater than 100000 nM and the GI50 [36] was 17.7 nM. For the same molecule, the TGI [36] was 370 nM, the GI50 [38] was 86.2 nM and the TGI [38] was greater than 100000 nM.
